In PubChem BioAssay (NCI):
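Growth conditions: 96-well plates. Treatment: test compound, 48 hours, 5 concentrations. Analysis: linear interpolation between bracketing concentrations; unreached endpoints set to highest concentration. At the GI50, growth is halved. TGI is the concentration that stops growth completely.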

Legend:
Experiment in all cases: inhibition of tumour cell growth, NCI panel, 48 h
[1] = test system: PC-3 prostate
[2] = test system: NCI-H522 lung
[3] = test system: HCC-2998 colon
[4] = test system: M14 melanoma
[5] = test system: IGROV1 ovarian
[6] = test system: BT-549 breast
[7] = test system: NCI-H23 lung
[8] = test system: MDA-MB-231 breast
[9] = test system: RPMI-8226 leukemia
[10] = test system: MALME-3M melanoma
[11] = test system: CCRF-CEM leukemia
[12] = test system: HOP-62 NSCLC
[13] = test system: NCI-H226 lung
[14] = test system: NCI/ADR-RES ovarian
[15] = test system: NCI-H460 lung
[16] = test system: SF-295 CNS
[17] = test system: SNB-75 CNS
[18] = test system: SK-MEL-5 melanoma
[19] = test system: A549 NSCLC
[20] = test system: DU-145 prostate
[21] = test system: SNB-19 CNS
[22] = test system: OVCAR-4 ovarian
[23] = test system: COLO 205 colon
[24] = test system: SK-OV-3 ovarian
[25] = test system: UACC-257 melanoma
[26] = test system: UACC-62 melanoma
[27] = test system: KM12 colon
[28] = test system: TK-10 renal
[29] = test system: ACHN renal
[30] = test system: MCF7 breast
[31] = test system: T-47D breast
[32] = test system: A498 renal
[33] = test system: OVCAR-8 ovarian
[34] = test system: HL-60(TB) leukemia
[35] = test system: OVCAR-3 ovarian
[36] = test system: OVCAR-5 ovarian
[37] = test system: SN12C renal
[38] = test system: CAKI-1 renal
[39] = test system: SK-MEL-2 melanoma
[40] = test system: EKVX NSCLC
[41] = test system: U251 CNS
[42] = test system: SF-539 CNS
[43] = test system: MDA-MB-435
[44] = test system: HS 578T breast
[45] = test system: HT29 colon
[46] = test system: HCT-15 colon
[47] = test system: RXF 393 renal
[48] = test system: K-562 leukemia
[49] = test system: SF-268 CNS
[50] = test system: SK-MEL-28 melanoma
[51] = test system: MOLT-4 leukemia
[52] = test system: HCT-116 colon
[53] = test system: LOX IMVI melanoma
[54] = test system: 786-0 renal
[55] = test system: UO-31 renal
[56] = test system: SW-620 colon
[57] = test system: HOP-92 NSCLC
[58] = test system: SR leukemia

SMILES: N#CC1=C(N)Oc2c(sc3c(F)cccc23)C1c1ccc([N+](=O)[O-])cc1 (stereo unspecified)
- GI50 [1]: 241 nM
- TGI [1]: 1710 nM
- GI50 [2]: 77.6 nM
- TGI [2]: 725 nM
- GI50 [3]: 307 nM
- TGI [3]: 1460 nM
- GI50 [4]: 111 nM
- TGI [4]: 645 nM
- GI50 [5]: 152 nM
- TGI [5]: 1560 nM
- GI50 [6]: 242 nM
- TGI [6]: 1300 nM
- GI50 [7]: 284 nM
- TGI [7]: 1460 nM
- GI50 [8]: 215 nM
- TGI [8]: 1210 nM
- GI50 [9]: 215 nM
- TGI [9]: 1450 nM
- GI50 [10]: 360 nM
- TGI [10]: 2170 nM
- GI50 [11]: 179 nM
- TGI [11]: 3230 nM
- GI50 [12]: 228 nM
- TGI [12]: 1790 nM
- GI50 [13]: 376 nM
- TGI [13]: 1930 nM
- GI50 [14]: 58.9 nM
- TGI [14]: 734 nM
- GI50 [15]: 253 nM
- TGI [15]: 1170 nM
- GI50 [16]: 184 nM
- TGI [16]: 1110 nM
- GI50 [17]: 115 nM
- TGI [17]: 445 nM
- GI50 [18]: 165 nM
- TGI [18]: 1240 nM
- GI50 [19]: 214 nM
- TGI [19]: 2370 nM
- GI50 [20]: 340 nM
- TGI [20]: 1380 nM
- GI50 [21]: 241 nM
- TGI [21]: 1510 nM
- GI50 [22]: 312 nM
- TGI [22]: 1900 nM
- GI50 [23]: 279 nM
- TGI [23]: 1110 nM
- GI50 [24]: 308 nM
- TGI [24]: 2370 nM
- GI50 [25]: 863 nM
- TGI [25]: 2900 nM
- GI50 [26]: 86.3 nM
- TGI [26]: 1330 nM
- GI50 [27]: 141 nM
- TGI [27]: 1270 nM
- GI50 [28]: 609 nM
- TGI [28]: 3120 nM
- GI50 [29]: 407 nM
- TGI [29]: 2310 nM
- GI50 [30]: 36.7 nM
- TGI [30]: 1540 nM
- GI50 [31]: 254 nM
- TGI [31]: 2860 nM
- GI50 [32]: 21.9 nM
- TGI [32]: 691 nM
- GI50 [33]: 258 nM
- TGI [33]: 1780 nM
- GI50 [34]: 212 nM
- TGI [34]: 806 nM
- GI50 [35]: 185 nM
- TGI [35]: 1060 nM
- GI50 [36]: 552 nM
- TGI [36]: 2260 nM
- GI50 [37]: 276 nM
- TGI [37]: 1310 nM
- GI50 [38]: 249 nM
- TGI [38]: 1660 nM
- GI50 [39]: 170 nM
- TGI [39]: 1230 nM
- GI50 [40]: 432 nM
- TGI [40]: 2630 nM
- GI50 [41]: 153 nM
- TGI [41]: 1210 nM
- GI50 [42]: 188 nM
- TGI [42]: 524 nM
- GI50 [43]: 27.2 nM
- TGI [43]: 84.8 nM
- GI50 [44]: 194 nM
- TGI [44]: 808 nM
- GI50 [45]: 323 nM
- TGI [45]: 1470 nM
- GI50 [46]: 68.2 nM
- TGI [46]: 1410 nM
- GI50 [47]: 191 nM
- TGI [47]: 753 nM
- GI50 [48]: 49.4 nM
- TGI [48]: 1790 nM
- GI50 [49]: 325 nM
- TGI [49]: 1930 nM
- GI50 [50]: 340 nM
- TGI [50]: 1970 nM
- GI50 [51]: 132 nM
- TGI [51]: 1460 nM
- GI50 [52]: 169 nM
- TGI [52]: 1330 nM
- GI50 [53]: 133 nM
- TGI [53]: 1090 nM
- GI50 [54]: 337 nM
- TGI [54]: 1460 nM
- GI50 [55]: 197 nM
- TGI [55]: 1030 nM
- GI50 [56]: 72.3 nM
- TGI [56]: 1420 nM
- GI50 [57]: 156 nM
- TGI [57]: 1180 nM
- GI50 [58]: 47.8 nM
- TGI [58]: 7420 nM

SMILES: COc1cc2cc(C(=O)O)[nH]c2cc1OCc1ccccc1
- GI50 [1]: > 100000 nM
- TGI [1]: > 100000 nM
- GI50 [2]: > 100000 nM
- TGI [2]: > 100000 nM
- GI50 [3]: > 100000 nM
- TGI [3]: > 100000 nM
- GI50 [4]: > 100000 nM
- TGI [4]: > 100000 nM
- GI50 [5]: > 100000 nM
- TGI [5]: > 100000 nM
- GI50 [6]: > 100000 nM
- TGI [6]: > 100000 nM
- GI50 [7]: > 100000 nM
- TGI [7]: > 100000 nM
- GI50 [8]: > 100000 nM
- TGI [8]: > 100000 nM
- GI50 [9]: > 100000 nM
- TGI [9]: > 100000 nM
- GI50 [10]: 2970 nM
- TGI [10]: 12200 nM
- GI50 [11]: > 100000 nM
- TGI [11]: > 100000 nM
- GI50 [12]: > 100000 nM
- TGI [12]: > 100000 nM
- GI50 [13]: > 100000 nM
- TGI [13]: > 100000 nM
- GI50 [14]: > 100000 nM
- TGI [14]: > 100000 nM
- GI50 [15]: > 100000 nM
- TGI [15]: > 100000 nM
- GI50 [16]: > 100000 nM
- TGI [16]: > 100000 nM
- GI50 [17]: > 100000 nM
- TGI [17]: > 100000 nM
- GI50 [18]: 80800 nM
- TGI [18]: > 100000 nM
- GI50 [20]: > 100000 nM
- TGI [20]: > 100000 nM
- GI50 [21]: > 100000 nM
- TGI [21]: > 100000 nM
- GI50 [22]: > 100000 nM
- TGI [22]: > 100000 nM
- GI50 [23]: > 100000 nM
- TGI [23]: > 100000 nM
- GI50 [24]: > 100000 nM
- TGI [24]: > 100000 nM
- GI50 [25]: 89400 nM
- TGI [25]: > 100000 nM
- GI50 [26]: > 100000 nM
- TGI [26]: > 100000 nM
- GI50 [27]: > 100000 nM
- TGI [27]: > 100000 nM
- GI50 [28]: > 100000 nM
- TGI [28]: > 100000 nM
- GI50 [29]: > 100000 nM
- TGI [29]: > 100000 nM
- GI50 [30]: 93200 nM
- TGI [30]: > 100000 nM
- GI50 [31]: > 100000 nM
- TGI [31]: > 100000 nM
- GI50 [33]: > 100000 nM
- TGI [33]: > 100000 nM
- GI50 [34]: > 100000 nM
- TGI [34]: > 100000 nM
- GI50 [35]: > 100000 nM
- TGI [35]: > 100000 nM
- GI50 [36]: > 100000 nM
- TGI [36]: > 100000 nM
- GI50 [37]: > 100000 nM
- TGI [37]: > 100000 nM
- GI50 [38]: > 100000 nM
- TGI [38]: > 100000 nM
- GI50 [39]: 44900 nM
- TGI [39]: > 100000 nM
- GI50 [40]: > 100000 nM
- TGI [40]: > 100000 nM
- GI50 [41]: > 100000 nM
- TGI [41]: > 100000 nM
- GI50 [42]: > 100000 nM
- TGI [42]: > 100000 nM
- GI50 [43]: > 100000 nM
- TGI [43]: > 100000 nM
- GI50 [44]: > 100000 nM
- TGI [44]: > 100000 nM
- GI50 [45]: > 100000 nM
- TGI [45]: > 100000 nM
- GI50 [46]: 84000 nM
- TGI [46]: > 100000 nM
- GI50 [47]: > 100000 nM
- TGI [47]: > 100000 nM
- GI50 [48]: > 100000 nM
- TGI [48]: > 100000 nM
- GI50 [49]: > 100000 nM
- TGI [49]: > 100000 nM
- GI50 [50]: 53500 nM
- TGI [50]: > 100000 nM
- GI50 [51]: > 100000 nM
- TGI [51]: > 100000 nM
- GI50 [52]: > 100000 nM
- TGI [52]: > 100000 nM
- GI50 [53]: > 100000 nM
- TGI [53]: > 100000 nM
- GI50 [54]: > 100000 nM
- TGI [54]: > 100000 nM
- GI50 [55]: > 100000 nM
- TGI [55]: > 100000 nM
- GI50 [56]: > 100000 nM
- TGI [56]: > 100000 nM
- GI50 [58]: > 100000 nM
- TGI [58]: > 100000 nM
